According to patent US20240299486A1, “ADDRESSING INJECTION SITE REACTIONS ASSOCIATED WITH THE ADMINISTRATION OF ELAMIPRETIDE” (STEALTH BIOTHERAPEUTICS INC., priority 2022, published 2024):
Entries after “also recorded” stand apart in the source; their conditions may differ.

What was measured:
healthy subjects [1] = experiment: Phase 1 crossover study: self-assessed injection site reactions; format: in vivo, human; conditions: 60 mg SQ elamipretide with or without the intervention, across all timepoints, all participants, n = 80
Procedure: (§1) • This Phase 1, open-label, 6-arm crossover study included 10 healthy subjects ≥18 and ≤65 years of age. • All subjects received 60 mg of SQ elamipretide to alternating quadrants of the abdomen on each of 6 occasions (FIG. 3), with or without the interventions listed in Table 2. • For each treatment arm, ISR clinical and self-assessments were performed pre-elamipretide administration and at 0.5, 1, 2, 4, 6, 12, 24, and 48 hours after each elamipretide dose. • Blood samples for plasma concentrations of elamipretide and its metabolites were also collected pre-dose and at 0.25, 0.5, 1, 2, 4, and 6 hours post-elamipretide dose. • Primary endpoints consisted of comparisons of the grading from the clinical assessments and the self-assessments of each ISR parameter following administration of elamipretide with each separate intervention versus that of elamipretide alone. • Secondary endpoints consisted of comparison of various pharmacokinetic (PK) parameters and adverse events following administration of elamipretide with each separate intervention versus that of elamipretide alone.
(§2) After the screening period (up to 28 days) in this phase 1, open-label, 4-week, 6-part, crossover study, all eligible subjects received 60 mg (0.75 mL) of SC elamipretide to alternating quadrants of the abdomen on each of 6 occasions, with or without potential ISR interventions. The first treatment arm (Arm 1) commenced on Day 1 with administration of elamipretide only, followed by the remaining treatment arms (Arms 2-6) with the following potential mitigations: mometasone furoate, 0.1% ointment, applied once under a hydrocolloid occlusive dressing (DuoDERM Extra Thin) 7 days prior to elamipretide administration (Arm 2); ice application at the elamipretide injection site 5 minutes pre- and post-drug administration (Arm 3); tacrolimus 0.1% ointment applied 15 minutes pre-drug dosing (Arm 4); doxepin 5% cream applied 15 minutes pre-elamipretide administration (Arm 5); and diphenhydramine 50 mg orally taken 2 hours prior to administration (Arm 6). For each treatment arm, blood samples for plasma concentrations of elamipretide and its metabolites were collected pre-dose and at 0.25, 0.5, 1, 2, 4, and 6 hours post-elamipretide dose. Vital signs were recorded pre-dose and at 0.5 and 6 hours post-elamipretide administration. ISR clinical and self-assessments were performed pre-elamipretide administration and at 0.5, 1, 2, 4, 6, 12, 24, and 48 hours after each elamipretide dose. Injection sites were photographed at 0.5, 1, 2, 4, and 12 hours post-elamipretide dose.
(§3) The primary endpoints of this study were comprised of the following efficacy measures: clinical assessments and subject self-assessments. Specifically, the primary endpoints consisted of comparisons of the grading of each ISR parameter following administration of elamipretide with each separate intervention versus the grading of each ISR parameter following administration of elamipretide alone. For clinical assessments, the clinical staff used a standard procedure adapted from the Division of Aids Table for Grading the Severity of Adult and Pediatric Adverse Events to score pain, erythema, induration, and pruritus using a 4-point scale based on severity (0=None, 1=Mild, 2=Moderate, 3=Severe, 4=Potentially Life Threatening). The self-assessments were based on a questionnaire to determine how bothered the patient was following each injection of elamipretide and included the following parameters: pain, burning sensation, cold sensation, itching, redness, swelling, and bruising.
(§4) All statistical analyses were performed using SAS GRID Linux/SAS Studio (Version 9.4, or higher). PK parameters for elamipretide and its metabolites, M1 and M2, were summarized using descriptive statistics.

healthy subjects [2] = experiment: Phase 1 crossover study: safety (TEAEs, vital signs, ECG); format: in vivo, human; conditions: Arm 6, 50 mg orally 2 hours prior to 60 mg SQ elamipretide, 10 subjects
Procedure: The secondary endpoints of this study consisted of PK and safety assessments. After measuring absorption and distribution PK of elamipretide and its metabolites (M1 and M2), comparisons of each Tmax, Cmax, and AUC0-6 following administration of elamipretide with each separate intervention versus Tmax, Cmax, and AUC0-6 following administration of elamipretide alone were performed. Safety assessments consisted of comparison of treatment emergent adverse events (TEAEs) reported following administration of elamipretide with each separate intervention versus TEAEs reported following administration of elamipretide alone. Safety measurements included TEAEs, clinical laboratory tests (e.g., serum chemistry and hematology), 12-lead ECGs, physical exams, and vital signs.

healthy subjects [3] = experiment: Phase 1 crossover study: clinically assessed injection site reactions; conditions: for Clinically assessed Erythema or redness, (%) of Reported Reactions / Clinically assessed Erythema or redness, Number of Reported Reactions / Clinically assessed Induration or swelling, (%) of Reported Reactions / Clinically assessed Induration or swelling, Number of Reported Reactions / Clinically assessed Pain or tenderness, (%) of Reported Reactions / Clinically assessed Pain or tenderness, Number of Reported Reactions / Clinically assessed Pruritis, (%) of Reported Reactions / Clinically assessed Pruritis, Number of Reported Reactions: 60 mg SQ elamipretide with or without the intervention, across all timepoints, all participants, n = 80; for Overall effect of the intervention on ISRs compared to elamipretide alone: clinical and self-assessments, 60 mg SQ elamipretide, vs Arm 1 (no intervention)
Procedure: as §1, §2, §3, §4

MRGPRX2 receptor = biological target: T1, MRGPRX2 receptor (Homo sapiens, UniProt Q96LB1); experiment: Fluo-4 calcium assay in MRGPRX2 expressing Chem-1 cells; format: cell-based
T1 construct: host or cells: Chem-1 cells (G418-selected)
T1 sequence (Q96LB1 1-330): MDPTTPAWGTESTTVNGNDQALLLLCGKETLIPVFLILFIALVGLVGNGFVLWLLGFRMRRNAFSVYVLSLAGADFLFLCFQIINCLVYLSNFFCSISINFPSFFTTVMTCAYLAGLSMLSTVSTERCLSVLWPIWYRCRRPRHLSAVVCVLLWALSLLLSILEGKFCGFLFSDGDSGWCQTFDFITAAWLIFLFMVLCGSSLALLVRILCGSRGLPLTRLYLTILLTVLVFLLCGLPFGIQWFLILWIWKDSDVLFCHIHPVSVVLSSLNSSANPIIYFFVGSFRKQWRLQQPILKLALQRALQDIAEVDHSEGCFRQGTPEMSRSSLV

[4] = clinical assessment, vs elamipretide alone

SMILES | Self-assessed Bruising, (%) of Reported Reactions (healthy subjects [1]) | Self-assessed Bruising, Number of Reported Reactions (healthy subjects [1]) | Self-assessed Burning sensation, (%) of Reported Reactions (healthy subjects [1]) | Self-assessed Burning sensation, Number of Reported Reactions (healthy subjects [1]) | Self-assessed Cold Sensation, Number of Reported Reactions (healthy subjects [1]) | Self-assessed Itching, (%) of Reported Reactions (healthy subjects [1]) | Self-assessed Itching, Number of Reported Reactions (healthy subjects [1]) | Self-assessed Pain, (%) of Reported Reactions (healthy subjects [1]) | Self-assessed Pain, Number of Reported Reactions (healthy subjects [1]) | Self-assessed Redness, (%) of Reported Reactions (healthy subjects [1]) | Self-assessed Redness, Number of Reported Reactions (healthy subjects [1]) | Self-assessed Swelling, (%) of Reported Reactions (healthy subjects [1]) | Self-assessed Swelling, Number of Reported Reactions (healthy subjects [1]) | Clinically assessed Erythema or redness, (%) of Reported Reactions (healthy subjects [3]) | Clinically assessed Erythema or redness, Number of Reported Reactions (healthy subjects [3]) | Clinically assessed Induration or swelling, (%) of Reported Reactions (healthy subjects [3]) | Clinically assessed Induration or swelling, Number of Reported Reactions (healthy subjects [3]) | Clinically assessed Pain or tenderness, (%) of Reported Reactions (healthy subjects [3]) | Clinically assessed Pain or tenderness, Number of Reported Reactions (healthy subjects [3]) | Clinically assessed Pruritis, (%) of Reported Reactions (healthy subjects [3]) | also measured
CN(C)CCOC(c1ccccc1)c1ccccc1 [Diphenhydramine] | (1.3) % | 1 | (1.3) % | 1 | 0.0 | (11.3) % | 9 | (2.5) % | 2 | (25.0) % | 20 | (6.3) % | 5 | (26.3) % | 21 | (6.3) % | 5 | (2.5) % | 2 | (10.0) % | mild somnolence, incidence (healthy subjects [2]): 50%; mild somnolence, number of subjects (healthy subjects [2]): 5 subjects; Clinically assessed Pruritis, Number of Reported Reactions (healthy subjects [3]): 8; Overall effect of the intervention on ISRs compared to elamipretide alone (healthy subjects [3]): most reduced; also recorded: potential in reducing induration; also recorded: Improvement; incidence of induration at 0.5 hours post-elamipretide dose (healthy subjects [3]; [4]): trend to significance in reduction; incidence of induration at 1 hour post-elamipretide dose (healthy subjects [3]; [4]): significantly decreased incidence
CN(C)CCC=C1c2ccccc2COc2ccccc21 [Doxepin] | (0.0) % | 0 | (7.5) % | 6 | 0.0 | (12.5) % | 10 | (8.8) % | 7 | (35.0) % | 28 | (21.3) % | 17 | (27.5) % | 22 | (21.3) % | 17 | (12.5) % | 10 | (12.5) % | Clinically assessed Pruritis, Number of Reported Reactions (healthy subjects [3]): 10; Overall effect of the intervention on ISRs compared to elamipretide alone (healthy subjects [3]): little impact
C[C@@H]1C[C@H]2[C@@H]3CCC4=CC(=O)C=C[C@]4(C)[C@@]3(Cl)[C@@H](O)C[C@]2(C)[C@@]1(OC(=O)c1ccco1)C(=O)CCl [Mometasone furoate] | (1.3) % | 1 | (8.8) % | 7 | 0.0 | (6.3) % | 5 | (8.8) % | 7 | (41.3) % | 33 | (11.3) % | 9 | (37.5) % | 30 | (10.0) % | 8 | (8.8) % | 7 | (2.5) % | Clinically assessed Pruritis, Number of Reported Reactions (healthy subjects [3]): 2; Overall effect of the intervention on ISRs compared to elamipretide alone (healthy subjects [3]): most reduced; also recorded: favorably mitigate; Overall effect of the intervention on ISRs compared to elamipretide alone (healthy subjects [3]; listed as mometasone furoate ointment): Improvement; incidence of induration at 0.5 hours post-elamipretide dose (healthy subjects [3]; [4]): significantly reduced incidence; incidence of induration at 1 hour post-elamipretide dose (healthy subjects [3]; [4]): Trends to significance in reduction; pruritus at 0.5 hours post-dose (healthy subjects [3]; [4]): Trends to significance in reduction
C=CC[C@@H]1/C=C(\C)C[C@H](C)C[C@H](OC)[C@H]2O[C@@](O)(C(=O)C(=O)N3CCCC[C@H]3C(=O)O[C@H](/C(C)=C/[C@@H]3CC[C@@H](O)[C@H](OC)C3)[C@H](C)[C@@H](O)CC1=O)[C@H](C)C[C@@H]2OC [Tacrolimus] | (10.0) % | 8 | (1.3) % | 1 | 0.0 | (15.0) % | 12 | (3.8) % | 3 | (25.0) % | 20 | (18.8) % | 15 | (31.3) % | 25 | (22.5) % | 18 | (3.8) % | 3 | (15.0) % | Clinically assessed Pruritis, Number of Reported Reactions (healthy subjects [3]): 12; Overall effect of the intervention on ISRs compared to elamipretide alone (healthy subjects [3]): little impact; Overall effect of the intervention on ISRs compared to elamipretide alone (healthy subjects [3]; listed as tacrolimus): most reduced; Overall effect of the intervention on ISRs compared to elamipretide alone (healthy subjects [3]; listed as tacrolimus ointment): Improvement
CCNC(=O)[C@@H]1CCCN1C(=O)[C@H](CCCNC(=N)N)NC(=O)[C@H](CC(C)C)NC(=O)[C@@H](CC(C)C)NC(=O)[C@H](Cc1ccc(O)cc1)NC(=O)[C@H](CO)NC(=O)[C@H](Cc1c[nH]c2ccccc12)NC(=O)[C@H](Cc1c[nH]cn1)NC(=O)[C@@H]1CCC(=O)N1 [leuprolide] | – | – | – | – | – | – | – | – | – | – | – | – | – | – | – | – | – | – | – | – | activation of the MRGPRX2 expressing cells (calcium mobilization) (MRGPRX2 receptor; Chem-1 cells, Fluo-4): dose dependent activation
O=c1c(O)c(-c2ccc(O)c(O)c2)oc2cc(O)cc(O)c12 [quercetin, 3,3′,4′,5,7-pentahydroxyflavone] | – | – | – | – | – | – | – | – | – | – | – | – | – | – | – | – | – | – | – | – | inhibition of the activation of the MRGPRX2 receptor caused by elamipretide (MRGPRX2 receptor; 100 μM of elamipretide, various concentrations of quercetin): in a dose-dependent manner, inhibit the activation; also recorded: inhibits activation of MRGPRX2
